Tests used:
CaR-1 = experiment: cells; assay type: functional, cell-based; conditions: Homo sapiens;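 further: growth inhibition of human CaR-1 cancer cells, read out with a cell viability assay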
Description: SANGER: Inhibition of human CaR-1 cell growth in a cell viability assay.

D-392MG = experiment: cells; assay type: functional, cell-based; conditions: Homo sapiens
DMS-273 = experiment: cells; assay type: functional, cell-based; conditions: Homo sapiens
Description: SANGER: Inhibition of human DMS-273 cell growth in a cell viability assay.

Daoy = experiment: cells; assay type: functional, cell-based; conditions: Homo sapiens;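 further: daoy cell growth inhibition, read out as cell viability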
Description: SANGER: Inhibition of human Daoy cell growth in a cell viability assay.

EFO-27 = experiment: cells; assay type: functional, cell-based; conditions: Homo sapiens;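 further: growth inhibition of EFO-27 cells, read out with a cell viability assay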
Description: SANGER: Inhibition of human EFO-27 cell growth in a cell viability assay.

FaDu = experiment: cells; assay type: functional, cell-based; conditions: Homo sapiens;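 further: cell viability readout of growth inhibition in FaDu cells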
Description: SANGER: Inhibition of human FADU cell growth in a cell viability assay.

GAMG = experiment: cells; assay type: functional, cell-based; conditions: Homo sapiens;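 further: cell growth inhibition measured by a viability assay in the GAMG human cell line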
Description: SANGER: Inhibition of human GAMG cell growth in a cell viability assay.

HCC1569 = experiment: cells; assay type: functional, cell-based; conditions: Homo sapiens;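 further: growth inhibition of human HCC1569 cells, read out with a cell viability assay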
Description: SANGER: Inhibition of human HCC1569 cell growth in a cell viability assay.

HGC-27 = experiment: cells; assay type: functional, cell-based; conditions: Homo sapiens;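 further: growth inhibition of human HGC-27 cells, read out in a cell viability assay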
Description: SANGER: Inhibition of human HGC-27 cell growth in a cell viability assay.

HLE = experiment: cells; assay type: functional, cell-based; conditions: Homo sapiens;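 further: growth inhibition of human HLE cells, read out by a cell viability assay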
Description: SANGER: Inhibition of human HLE cell growth in a cell viability assay.

HT1197 = experiment: cells; assay type: functional, cell-based, HT-1197; conditions: Homo sapiens
Description: SANGER: Inhibition of human HT-1197 cell growth in a cell viability assay.

IMR-5 = experiment: cells; assay type: functional, cell-based; conditions: Homo sapiens;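 further: growth inhibition of human IMR-5 cells, read out with a cell viability assay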
Description: SANGER: Inhibition of human IMR-5 cell growth in a cell viability assay.

KARPAS-422 = experiment: cells; assay type: functional, cell-based; conditions: Homo sapiens
Description: SANGER: Inhibition of human KARPAS-422 cell growth in a cell viability assay.

KMS-12-PE = experiment: cells; assay type: functional, cell-based; conditions: Homo sapiens;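 further: growth inhibition of human KMS-12-PE cells, measured with a cell viability assay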
Description: SANGER: Inhibition of human KMS-12-PE cell growth in a cell viability assay.

KOSC-2 = experiment: cells; assay type: functional, cell-based; conditions: Homo sapiens;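 further: growth inhibition of KOSC-2 cells, read out by a cell viability assay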
Description: SANGER: Inhibition of human KOSC-2 cell growth in a cell viability assay.

KYSE-520 cell line = experiment: cells; assay type: functional, cell-based; conditions: Homo sapiens;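 further: growth inhibition of human KYSE-520 cells, read out with a viability assay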
Description: SANGER: Inhibition of human KYSE-520 cell growth in a cell viability assay.

LN-405 = experiment: cells; assay type: functional, cell-based; conditions: Homo sapiens
Description: SANGER: Inhibition of human LN-405 cell growth in a cell viability assay.

LP-1 = experiment: cells; assay type: functional, cell-based; conditions: Homo sapiens;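 further: growth inhibition of human LP-1 cells, with the read-out taken from a cell viability assay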
Description: SANGER: Inhibition of human LP-1 cell growth in a cell viability assay.

LoVo = experiment: cells; assay type: functional, cell-based; conditions: Homo sapiens;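 further: growth inhibition of human LoVo cells, read out with a cell viability assay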
Description: SANGER: Inhibition of human LoVo cell growth in a cell viability assay.

MC-CAR = experiment: cells; assay type: functional, cell-based; conditions: Homo sapiens;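 further: growth inhibition of the human MC-CAR cell line, read out by a cell viability assay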
Description: SANGER: Inhibition of human MC-CAR cell growth in a cell viability assay.

MDA-MB-415 = experiment: cells; assay type: functional, cell-based; conditions: Homo sapiens
NCCIT = experiment: SANGER: Inhibition of human NCCIT cell growth in a cell viability assay.; assay type: functional, cell-based
NCI-H1522 = experiment: cells; assay type: functional, cell-based; conditions: Homo sapiens;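 further: growth inhibition of NCI-H1522 cells, read out with a cell viability assay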
Description: SANGER: Inhibition of human NCI-H1522 cell growth in a cell viability assay.

NCI-H1623 = experiment: cells; assay type: functional, cell-based; conditions: Homo sapiens;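 further: cell viability assay used as the read-out for growth inhibition of NCI-H1623 cells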
Description: SANGER: Inhibition of human NCI-H1623 cell growth in a cell viability assay.

NCI-H1792 = experiment: cells; assay type: functional, cell-based; conditions: Homo sapiens;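 further: growth inhibition of human NCI-H1792 cells, read out as cell viability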
Description: SANGER: Inhibition of human NCI-H1792 cell growth in a cell viability assay.

NCI-H1793 = experiment: cells; assay type: functional, cell-based; conditions: Homo sapiens;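 further: cell growth inhibition, read out by a cell viability assay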
Description: SANGER: Inhibition of human NCI-H1793 cell growth in a cell viability assay.

NCI-H1882 = experiment: cells; assay type: functional, cell-based; conditions: Homo sapiens;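 further: growth inhibition of the cell line, determined with a viability assay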
Description: SANGER: Inhibition of human NCI-H1882 cell growth in a cell viability assay.

NCI-H2087 = experiment: cells; assay type: functional, cell-based; conditions: Homo sapiens;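 further: growth inhibition determined with a cell viability readout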
Description: SANGER: Inhibition of human NCI-H2087 cell growth in a cell viability assay.

NCI-H2141 = experiment: cells; assay type: functional, cell-based; conditions: Homo sapiens;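 further: growth inhibition of human NCI-H2141 cells, read out with a cell viability assay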
Description: SANGER: Inhibition of human NCI-H2141 cell growth in a cell viability assay.

NCI-H2452 = experiment: cells; assay type: functional, cell-based; conditions: Homo sapiens;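 further: growth inhibition of NCI-H2452 cells, read out with a cell viability assay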
Description: SANGER: Inhibition of human NCI-H2452 cell growth in a cell viability assay.

NCI-H345 = experiment: cells; assay type: functional, cell-based; conditions: Homo sapiens;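 further: growth inhibition of NCI-H345 cells measured with a cell viability assay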
Description: SANGER: Inhibition of human NCI-H345 cell growth in a cell viability assay.

NCI-H716 = experiment: cells; assay type: functional, cell-based; conditions: Homo sapiens;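 further: growth inhibition of human NCI-H716 cells, measured by a cell viability assay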
Description: SANGER: Inhibition of human NCI-H716 cell growth in a cell viability assay.

PANC-03-27 = experiment: cells; assay type: functional, cell-based; conditions: Homo sapiens
Description: SANGER: Inhibition of human PANC-03-27 cell growth in a cell viability assay.

RPMI-6666 = experiment: cells; assay type: functional, cell-based; conditions: Homo sapiens
Description: SANGER: Inhibition of human RPMI-6666 cell growth in a cell viability assay.

RT-112 = experiment: cells; assay type: functional, cell-based; conditions: Homo sapiens
Description: SANGER: Inhibition of human RT-112 cell growth in a cell viability assay.

SIG-M5 = experiment: cells; assay type: functional, cell-based; conditions: Homo sapiens;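 further: cell viability assay read-out, measuring how strongly growth of cultured human SIG-M5 cells is inhibited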
Description: SANGER: Inhibition of human SIG-M5 cell growth in a cell viability assay.

SIMA = experiment: cells; assay type: functional, cell-based; conditions: Homo sapiens;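 further: growth inhibition of SIMA cells, measured with a cell viability readout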
Description: SANGER: Inhibition of human SIMA cell growth in a cell viability assay.

SJRH30 = experiment: cells; assay type: functional, cell-based; conditions: Homo sapiens;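 further: growth inhibition of human SJRH30 cells, read out with a cell viability assay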
Description: SANGER: Inhibition of human SJRH30 cell growth in a cell viability assay.

SK-N-AS = experiment: cells; assay type: functional, cell-based; conditions: Homo sapiens;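 further: growth inhibition of human SK-N-AS cells, measured with a cell viability assay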
Description: SANGER: Inhibition of human SK-N-AS cell growth in a cell viability assay.

SN12C = experiment: cells; assay type: functional, cell-based; conditions: Homo sapiens;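 further: growth inhibition of human SN12C cells, measured by a cell viability assay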
Description: SANGER: Inhibition of human SN12C cell growth in a cell viability assay.

SNU-C1 = experiment: cells; assay type: functional, cell-based; conditions: Homo sapiens;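 further: growth inhibition of SNU-C1 human cells, read out by a cell viability assay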
Description: SANGER: Inhibition of human SNU-C1 cell growth in a cell viability assay.

SW1088 = experiment: cells; assay type: functional, cell-based; conditions: Homo sapiens;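 further: growth inhibition of human SW1088 cells, read out by a cell viability assay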
Description: SANGER: Inhibition of human SW1088 cell growth in a cell viability assay.

SW13 = experiment: cells; assay type: functional, cell-based; conditions: Homo sapiens;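 further: IC50 is inhibition of SW13 cell growth, read out with a cell viability assay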
Description: SANGER: Inhibition of human SW13 cell growth in a cell viability assay.

SW1463 = experiment: cells; assay type: functional, cell-based; conditions: Homo sapiens;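 further: growth inhibition of SW1463 cells, determined with a cell viability assay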
Description: SANGER: Inhibition of human SW1463 cell growth in a cell viability assay.

SW837 = experiment: cells; assay type: functional, cell-based; conditions: Homo sapiens;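 further: growth inhibition of SW837 cells, determined with a cell viability assay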
Description: SANGER: Inhibition of human SW837 cell growth in a cell viability assay.

SW948 = experiment: cells; assay type: functional, cell-based; conditions: Homo sapiens;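 further: growth inhibition of SW948 cells, read out with a cell viability assay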
Description: SANGER: Inhibition of human SW948 cell growth in a cell viability assay.

T84 = experiment: cells; assay type: functional, cell-based; conditions: Homo sapiens;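 further: growth inhibition measured with a cell viability readout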
Description: SANGER: Inhibition of human T84 cell growth in a cell viability assay.

5637 = experiment: cells; assay type: functional, cell-based; conditions: Homo sapiens
Description: SANGER: Inhibition of human 5637 cell growth in a cell viability assay.

639-V = experiment: cells; assay type: functional, cell-based; conditions: Homo sapiens;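 further: growth inhibition of 639-V cells, read out with a cell viability assay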
Description: SANGER: Inhibition of human 639-V cell growth in a cell viability assay.

769-P = experiment: cells; assay type: functional, cell-based; conditions: Homo sapiens
Description: SANGER: Inhibition of human 769-P cell growth in a cell viability assay.

786-0 = experiment: cells; assay type: functional, cell-based; conditions: Homo sapiens
Description: SANGER: Inhibition of human 786-0 cell growth in a cell viability assay.

8505C = experiment: cells; assay type: functional, cell-based; conditions: Homo sapiens
Description: SANGER: Inhibition of human 8505C cell growth in a cell viability assay.

A-427 = experiment: cells; assay type: functional, cell-based; conditions: Homo sapiens;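 further: growth inhibition of human A-427 cells, read out by a cell viability assay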
Description: SANGER: Inhibition of human A427 cell growth in a cell viability assay.

ABC-1 = experiment: cells; assay type: functional, cell-based; conditions: Homo sapiens;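 further: growth inhibition of human ABC-1 cells, read out by a cell viability assay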
Description: SANGER: Inhibition of human ABC-1 cell growth in a cell viability assay.

ARH-77 = experiment: cells; assay type: functional, cell-based; conditions: Homo sapiens;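 further: growth inhibition of ARH-77 cells, read out by a cell viability assay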
Description: SANGER: Inhibition of human ARH-77 cell growth in a cell viability assay.

BXPC-3 = experiment: cells; assay type: functional, cell-based; conditions: Homo sapiens;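 further: growth inhibition of human BxPC-3 cells, read out by a cell viability assay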
Description: SANGER: Inhibition of human BxPC-3 cell growth in a cell viability assay.

C-33-A = experiment: cells; assay type: functional, cell-based; conditions: Homo sapiens;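 further: cell viability assay measuring growth inhibition of C-33-A cells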
Description: SANGER: Inhibition of human C-33-A cell growth in a cell viability assay.

CAL-27 = experiment: cells; assay type: functional, cell-based; conditions: Homo sapiens;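 further: Viability-based readout, IC50 reflecting inhibition of CAL-27 cell growth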
Description: SANGER: Inhibition of human CAL-27 cell growth in a cell viability assay.

CAL-62 = experiment: cells; assay type: functional, cell-based; conditions: Homo sapiens;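 further: growth inhibition of CAL-62 cells, read out with a cell viability assay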
Description: SANGER: Inhibition of human CAL-62 cell growth in a cell viability assay.

THP-1 = experiment: cells; assay type: functional, cell-based; conditions: Homo sapiens;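 further: growth inhibition of THP-1 cells, read out via a cell viability assay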
Description: SANGER: Inhibition of human THP-1 cell growth in a cell viability assay.

UMC-11 = experiment: cells; assay type: functional, cell-based; conditions: Homo sapiens;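 further: growth inhibition of UMC-11 cells, read out with a cell viability assay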
Description: SANGER: Inhibition of human UMC-11 cell growth in a cell viability assay.

WM-115 = experiment: cells; assay type: functional, cell-based; conditions: Homo sapiens
Description: SANGER: Inhibition of human WM-115 cell growth in a cell viability assay.

WSU-NHL = experiment: cells; assay type: functional, cell-based; conditions: Homo sapiens;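 further: growth inhibition of human WSU-NHL cells, read out with a cell viability assay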
Description: SANGER: Inhibition of human WSU-NHL cell growth in a cell viability assay.

CAPAN-1 = experiment: cells; assay type: functional, cell-based; conditions: Homo sapiens
Description: SANGER: Inhibition of human CAPAN-1 cell growth in a cell viability assay.

N#C/C(=C1/Nc2ccccc2S1)c1ccnc(NCCc2cccnc2)n1
IC50 (CaR-1): > 8 µM
IC50 (D-392MG): > 8 µM
IC50 (DMS-273): 1.49 µM
IC50 (Daoy): > 8 µM
IC50 (EFO-27): > 8 µM
IC50 (FaDu): > 8 µM
IC50 (GAMG): > 8 µM
IC50 (HCC1569): 1.96 µM
IC50 (HGC-27): 6.27 µM
IC50 (HLE): 3.47 µM
IC50 (HT1197): > 8 µM
IC50 (IMR-5): > 8 µM
IC50 (KARPAS-422): > 8 µM
IC50 (KMS-12-PE): > 8 µM
IC50 (KOSC-2): > 8 µM
IC50 (KYSE-520 cell line): > 8 µM
IC50 (LN-405): > 8 µM
IC50 (LP-1): > 8 µM
IC50 (LoVo): 2.7 µM
IC50 (MC-CAR): > 8 µM
IC50 (MDA-MB-415): > 8 µM
IC50 (NCCIT): > 8 µM
IC50 (NCI-H1522): > 8 µM
IC50 (NCI-H1623): > 8 µM
IC50 (NCI-H1792): > 8 µM
IC50 (NCI-H1793): > 8 µM
IC50 (NCI-H1882): > 8 µM
IC50 (NCI-H2087): > 8 µM
IC50 (NCI-H2141): > 8 µM
IC50 (NCI-H2452): > 8 µM
IC50 (NCI-H345): > 8 µM
IC50 (NCI-H716): > 8 µM
IC50 (PANC-03-27): 2.9 µM
IC50 (RPMI-6666): > 8 µM
IC50 (RT-112): > 8 µM
IC50 (SIG-M5): > 8 µM
IC50 (SIMA): > 8 µM
IC50 (SJRH30): > 8 µM
IC50 (SK-N-AS): > 8 µM
IC50 (SN12C): > 8 µM
IC50 (SNU-C1): > 8 µM
IC50 (SW1088): > 8 µM
IC50 (SW13): > 8 µM
IC50 (SW1463): > 8 µM
IC50 (SW837): 5.24 µM
IC50 (SW948): > 8 µM
IC50 (T84): 3.86 µM
IC50 5637: > 8 µM
IC50 (639-V): 4.84 µM
IC50 (769-P): > 8 µM
IC50 (786-0): 3.08 µM
IC50 (8505C): 2.9 µM
IC50 (A-427): > 8 µM
IC50 (ABC-1): > 8 µM
IC50 (ARH-77): > 8 µM
IC50 (BXPC-3): 1.86 µM
IC50 (C-33-A): 2.67 µM
IC50 (CAL-27): > 8 µM
IC50 (CAL-62): 5.89 µM
IC50 (THP-1): 5.33 µM
IC50 (UMC-11): > 8 µM
IC50 (WM-115): > 8 µM
IC50 (WSU-NHL): > 8 µM
IC50 (CAPAN-1): > 8 µM

C/C(O)=C(\C#N)C(=O)Nc1cc(Br)ccc1Br
IC50 (CaR-1): > 16 µM
IC50 (D-392MG): > 16 µM
IC50 (DMS-273): > 16 µM
IC50 (Daoy): > 16 µM
IC50 (EFO-27): > 16 µM
IC50 (FaDu): > 16 µM
IC50 (GAMG): > 16 µM
IC50 (HCC1569): > 16 µM
IC50 (HGC-27): > 16 µM
IC50 (HLE): > 16 µM
IC50 (HT1197): > 16 µM
IC50 (IMR-5): > 16 µM
IC50 (KARPAS-422): > 16 µM
IC50 (KMS-12-PE): > 16 µM
IC50 (KOSC-2): > 16 µM
IC50 (KYSE-520 cell line): > 16 µM
IC50 (LN-405): > 16 µM
IC50 (LP-1): > 16 µM
IC50 (LoVo): > 16 µM
IC50 (MC-CAR): > 16 µM
IC50 (MDA-MB-415): > 16 µM
IC50 (NCCIT): > 16 µM
IC50 (NCI-H1522): > 16 µM
IC50 (NCI-H1623): > 16 µM
IC50 (NCI-H1792): > 16 µM
IC50 (NCI-H1793): > 16 µM
IC50 (NCI-H1882): > 16 µM
IC50 (NCI-H2087): > 16 µM
IC50 (NCI-H2141): > 16 µM
IC50 (NCI-H2452): > 16 µM
IC50 (NCI-H345): > 16 µM
IC50 (NCI-H716): > 16 µM
IC50 (PANC-03-27): > 16 µM
IC50 (RPMI-6666): > 16 µM
IC50 (RT-112): > 16 µM
IC50 (SIG-M5): > 16 µM
IC50 (SIMA): > 16 µM
IC50 (SJRH30): > 16 µM
IC50 (SK-N-AS): > 16 µM
IC50 (SN12C): > 16 µM
IC50 (SNU-C1): > 16 µM
IC50 (SW1088): > 16 µM
IC50 (SW13): > 16 µM
IC50 (SW1463): > 16 µM
IC50 (SW837): > 16 µM
IC50 (SW948): > 16 µM
IC50 (T84): > 16 µM
IC50 5637: > 16 µM
IC50 (639-V): > 16 µM
IC50 (769-P): > 16 µM
IC50 (786-0): > 16 µM
IC50 (8505C): > 16 µM
IC50 (A-427): > 16 µM
IC50 (ABC-1): > 16 µM
IC50 (ARH-77): > 16 µM
IC50 (BXPC-3): > 16 µM
IC50 (C-33-A): > 16 µM
IC50 (CAL-27): > 16 µM
IC50 (CAL-62): > 16 µM
IC50 (THP-1): > 16 µM
IC50 (UMC-11): > 16 µM
IC50 (WM-115): > 16 µM
IC50 (WSU-NHL): > 16 µM
IC50 (CAPAN-1): > 16 µM
